Assay results: patent US20220128542A1, “TREATMENT EFFICIENCY EVALUATION” (TX MEDIC AB, priority 2019, published 2022)

Test system: brain of rats subjected to severe traumatic brain injury (sTBI)
Test: Ingenuity pathway analysis of differentially regulated genes after sTBI (canonical pathways, diseases and molecular functions; Example 4)
Parameters: species or system rat
Conditions: 2 days after TBI
Method: Pathway analysis of the differentially regulated genes was carried out using the Ingenuity pathway analysis package. The analysis was performed with special reference to pathways and molecular processes and diseases associated with neurodegenerative disease, including dementia, Alzheimer's disease, ALS, TBI and stroke, and with scarring and fibrosis, including glaucoma and normal pressure hydrocephalus (NPH) after subarachnoid haemorrhage.

[1] = TBI + 5 mg/kg LMW-DS relative to control

sodium salt of dextran sulfate [LMW-DS]
Apoptosis (disease/function), z score (TBI + 5 mg/kg LMW-DS): 0.601
Behavior (disease/function), z score (TBI + 5 mg/kg LMW-DS): −2.009
Carcinoma (disease/function), z score (TBI + 5 mg/kg LMW-DS): −2.071
Cell death (disease/function), z score (TBI + 5 mg/kg LMW-DS): 0.051
Cell death of antigen presenting cells (disease/function), z score (TBI + 5 mg/kg LMW-DS): −0.62
Cell death of immune cells (disease/function), z score (TBI + 5 mg/kg LMW-DS): −1
Cell death of tumor cell lines (disease/function), z score (TBI + 5 mg/kg LMW-DS): −1.947
Cell movement (disease/function), z score (TBI + 5 mg/kg LMW-DS): −3.723
Cell movement of tumor cell lines (disease/function), z score (TBI + 5 mg/kg LMW-DS): −2.078
Cell proliferation of leukocyte cell lines (disease/function), z score (TBI + 5 mg/kg LMW-DS): −2.754
Cellular homeostasis (disease/function), z score (TBI + 5 mg/kg LMW-DS): −3.19
Chemotaxis (disease/function), z score (TBI + 5 mg/kg LMW-DS): −3.642
Concentration of prostaglandin (disease/function), z score (TBI + 5 mg/kg LMW-DS): −0.911
Development of vasculature (disease/function), z score (TBI + 5 mg/kg LMW-DS): −1.534
Digestive organ tumor (disease/function), z score (TBI + 5 mg/kg LMW-DS): −1.149
Digestive system cancer (disease/function), z score (TBI + 5 mg/kg LMW-DS): −2.221
Edema (disease/function), z score (TBI + 5 mg/kg LMW-DS): 3.386
Epithelial neoplasm (disease/function), z score (TBI + 5 mg/kg LMW-DS): −1.393
Extracranial solid tumor (disease/function), z score (TBI + 5 mg/kg LMW-DS): −0.992
Feeding (disease/function), z score (TBI + 5 mg/kg LMW-DS): −0.895
Growth of tumor (disease/function), z score (TBI + 5 mg/kg LMW-DS): −1.233
Hematologic cancer (disease/function), z score (TBI + 5 mg/kg LMW-DS): −1.067
Incidence of tumor (disease/function), z score (TBI + 5 mg/kg LMW-DS): −0.731
Leukocyte migration (disease/function), z score (TBI + 5 mg/kg LMW-DS): −2.163
Leukopoiesis (disease/function), z score (TBI + 5 mg/kg LMW-DS): −3.549
Locomotion (disease/function), z score (TBI + 5 mg/kg LMW-DS): −0.039
Lymphocyte homeostasis (disease/function), z score (TBI + 5 mg/kg LMW-DS): −2.94
Lymphocytic cancer (disease/function), z score (TBI + 5 mg/kg LMW-DS): −0.48
Lymphocytic neoplasm (disease/function), z score (TBI + 5 mg/kg LMW-DS): −0.48
Lymphopoiesis (disease/function), z score (TBI + 5 mg/kg LMW-DS): −3.105
Lymphoproliferative disorder (disease/function), z score (TBI + 5 mg/kg LMW-DS): −0.48
Malignant solid tumor (disease/function), z score (TBI + 5 mg/kg LMW-DS): −1.492
Metabolism of hormone (disease/function), z score (TBI + 5 mg/kg LMW-DS): −1.632
Migration of cells (disease/function), z score (TBI + 5 mg/kg LMW-DS): −3.087
NF-κB Signaling canonical pathway, effect (TBI + 5 mg/kg LMW-DS): Inhibited
Necrosis (disease/function), z score (TBI + 5 mg/kg LMW-DS): −1.503
Neoplasia of leukocytes (disease/function), z score (TBI + 5 mg/kg LMW-DS): −0.48
Non-melanoma solid tumor (disease/function), z score (TBI + 5 mg/kg LMW-DS): −1.249
Osteoarthritis Pathway canonical pathway, effect (TBI + 5 mg/kg LMW-DS): Inhibited
Proliferation of hematopoietic progenitor cells (disease/function), z score (TBI + 5 mg/kg LMW-DS): −2.951
Quantity of cells (disease/function), z score (TBI + 5 mg/kg LMW-DS): −3.092
Quantity of epithelial tissue (disease/function), z score (TBI + 5 mg/kg LMW-DS): −0.028
Quantity of neuroglia (disease/function), z score (TBI + 5 mg/kg LMW-DS): −1.446
Resorption of bone (disease/function), z score (TBI + 5 mg/kg LMW-DS): −0.478
Role of NFAT in Cardiac Hypertrophy canonical pathway, effect (TBI + 5 mg/kg LMW-DS): Inhibited
Secretion of molecule (disease/function), z score (TBI + 5 mg/kg LMW-DS): 1.634
Size of body (disease/function), z score (TBI + 5 mg/kg LMW-DS): −4.771
Synthesis of hormone (disease/function), z score (TBI + 5 mg/kg LMW-DS): −1.632
Transport of molecule (disease/function), z score (TBI + 5 mg/kg LMW-DS): 0.248
Vasculogenesis (disease/function), z score (TBI + 5 mg/kg LMW-DS): −2.274
Adrenomedullin Signaling pathway canonical pathway, z score [1]: −2.236
NF-κB Signaling canonical pathway, z score [1]: −2
Osteoarthritis Pathway canonical pathway, z score [1]: −2.646
Role of NFAT in Cardiac Hypertrophy canonical pathway, z score [1]: −1.633
Apoptosis (disease/function), z score (TBI + 15 mg/kg LMW-DS): −0.502
Apoptosis of tumor cell lines (disease/function), z score (TBI + 15 mg/kg LMW-DS): 0.09
Behavior (disease/function), z score (TBI + 15 mg/kg LMW-DS): −0.139
Cell death (disease/function), z score (TBI + 15 mg/kg LMW-DS): −0.141
Necrosis (disease/function), z score (TBI + 15 mg/kg LMW-DS): −0.477
Quantity of blood cells (disease/function), z score (TBI + 15 mg/kg LMW-DS): −0.34
Quantity of cells (disease/function), z score (TBI + 15 mg/kg LMW-DS): −0.797
Quantity of lymphocytes (disease/function), z score (TBI + 15 mg/kg LMW-DS): −0.943
Transcription of RNA (disease/function), z score (TBI + 15 mg/kg LMW-DS): −2.488
Effect on diseases or functions annotation: Abdominal cancer (TBI + 1 mg/kg LMW-DS): Inhibited
Effect on diseases or functions annotation: Abdominal carcinoma (TBI + 1 mg/kg LMW-DS): Inhibited
Effect on diseases or functions annotation: Abdominal neoplasm (TBI + 1 mg/kg LMW-DS): Inhibited
Effect on diseases or functions annotation: Activation of blood cells (TBI + 1 mg/kg LMW-DS): Activated
Effect on diseases or functions annotation: Activation of cells (TBI + 1 mg/kg LMW-DS): Activated
Effect on diseases or functions annotation: Activation of leukocytes (TBI + 1 mg/kg LMW-DS): Activated
Effect on diseases or functions annotation: Activation of lymphocytes (TBI + 1 mg/kg LMW-DS): Inhibited
Effect on diseases or functions annotation: Adhesion of tumor cell lines (TBI + 1 mg/kg LMW-DS): Activated
Effect on diseases or functions annotation: Apoptosis (TBI + 1 mg/kg LMW-DS): Inhibited
